Results from patent US20140148446A1, “COMPOUNDS THAT ENABLE ALTERNATIVE MITOCHONDRIAL ELECTRON TRANSFER” (University of North Texas Health Science Center, priority 2010, published 2014).

Assays:
[1] = test system: transient MCA occlusion in rats; assay: Transient focal cerebral ischemia (MCA occlusion); format: in vivo; details: rat, single dosage of MB at 500 μg/kg, 24 hr after reperfusion
Description: Transient focal cerebral ischemia was induced by intraluminal filament MCA occlusion (Liu et al., 2005). Briefly, the left internal carotid artery (ICA) was exposed, and a 3-0 monofilament nylon suture was introduced into the ICA lumen through a puncture and gently advanced to the distal ICA until proper resistance was felt. After 1 hr, the suture was withdrawn for reperfusion. At 24 hr after reperfusion, the animals were sacrificed and the brain harvested. The brains were sectioned at 3, 5, 7, 9, 11, 13 and 15 mm posterior to the olfactory bulb. Each slice was incubated 30 min in 2% 2,3,5-triphenyltetrazolium chloride (TTC) in physiological saline, then fixed in 10% formalin. The stained slices were digitally photographed for measurement of ischemic lesion volume (Image-Pro Plus 4.1).

HT-22 cells [2] = assay: Seahorse XF-24 metabolic flux analysis (OCR, ECAR); format: cell-based
Procedure: HT22 cells were plated at 8,000/well and cultured on Seahorse XF-24 plates. Cells were grown in previously described medium and environments for 24 hr. On the day of metabolic flux analysis, cells were changed to unbuffered DMEM (DMEM base medium supplemented with 25 mM glucose, 10 mM sodium pyruvate, 31 mM NaCl, 2 mM GlutaMax, pH 7.4) and incubated at 37° C. in a non-CO2 incubator for 1 hr. All medium and injection reagents were adjusted to pH 7.4 on the day of assay. Four baseline measurements of oxygen consumption rate (OCR) and extracellular acidification rate (ECAR) were taken before sequential injection of mitochondrial inhibitors. Specific readings indicated by the arrows were taken after each addition of mitochondrial inhibitor before injection of the subsequent inhibitors. The mitochondrial inhibitors used were oligomycin (10 μM), FCCP (1 μM), and rotenone (5 μM). OCR and ECAR were automatically calculated and recorded by the Seahorse XF-24 software. After the assays, plates were saved and protein readings were measured for each well to confirm equal cell numbers per well. The percentage of change compared with the basal rates was calculated as the value of change divided by the average value of baseline readings.

[3] = test system: preclinical animal model of Alzheimer's disease; assay: Preclinical animal model of Alzheimer's disease, MB supplemented diet; format: in vivo; details: long term feeding of MB supplemented diet
HT-22 cells [4] = assay: Mitochondrial superoxide and cellular ROS analysis, rotenone treated cells; format: cell-based; details: MB 100 ng/ml
Procedure: Mitochondrial specific superoxide and cellular ROS were measured with specific fluorescent probes. Briefly, HT-22 cells were treated with vehicle or 2 μM rotenone, with or without 100 ng/ml MB for 4 hr. The cells were dissociated, then incubated in pre-warmed PBS containing 0.5% BSA and H2DCFDA (Cellular ROS) or MitoSox (mitochondrial superoxide) for 15 min at 37° C., followed by washing with PBS. The cells were then resuspended in supplemented RPMI-1640 for further incubation. The cells were analyzed with FITC channel (Cellular ROS), or PE channel (MitoSox) using a BD™ LSRII flow cytometer.

[5] = test system: rotenone induced rat model of PD; assay: Rotenone model of PD: striatal monoamines, brain complex I-III activity and total ROS; format: in vivo
Procedure: All mitochondrial activity assays were performed according to previous publications with minimal modifications for complex I (Lenaz et al., 2004), complex I-III, complex II, complex III, and II-III (Trounce et al., 1996). All assays used a similar master mix that contained potassium phosphate pH 7.4 (50 mM), BSA 2.5mg/ml, MgCl2 5 mM, KCN (2 mM), and various inhibitors or substrates, including rotenone (6 μM), antimycin A (2 μM), NADH (150 μM), CoQ1 (60 μM), cyt c (50 μM), succinate (8 mM), and DBH2 (100 μM). Complex I activity was monitored by adding NADH to the mix with or without rotenone/antimycin A. The final data were normalized to blank values at time zero. The reaction was monitored in a kinetic spectrophotometer at 340 nm. Complex I activity was measured in arbitrary units and normalized to control levels for statistical analysis. Isolated mitochondria equivalent to 40-200 μg mitochondrial protein was used for each assay, except for assays with inhibitors, when larger amount of mitochondria (3 to 5 folds) were used to ensure that inhibition was distinguishable. Final data were normalized to control levels. For complex I-III activity, the reaction was initiated with the addition of NADH, cyt c was used as final substrate and its reduction was monitored at 550 nm. For assay of complex II-III activity, succinate was added instead of NADH, and the electron transfer to cyt c was performed according to previous publications (Atamna et al., 2008). To test whether the electrons from the reduced form of MB (MBH2) can be transferred to cyt c in mitochondrial lysate, we added 10 μM 2,7-dichlorofluorescin (DCFH, Invitrogen, Carlsbad, Calif.) to the reaction system. Free radicals convert non-fluorescent DCFH to highly fluorescent DCF (Ex, 488 nm, and Em, 530 nm). In the presence of cyt c, which accepts electrons from MBH2, conversion of DCFH to DCF is decreased.
Rats were assigned to three groups: control animals received vehicle infusion and daily saline injection (Veh/Sal N=6-8); a second group received rotenone infusion at the dose of 5 mg/kg/day and daily saline injection (ROT/Saline N=8-11); and the third group received rotenone infusion (5 mg/kg/day) and MB injection at the dose of 500 μg/kg/day (ROT/MB N=8-10). Vehicle or rotenone was infused via Alzet osmotic mini pumps that were filled with vehicle or rotenone dissolved in vehicle (equal volumes of dimethylsulfoxide and polyethylene glycol). Pumps containing vehicle or rotenone were sterilized with UV irradiation and implanted subcutaneously on the back. Intraperitoneal injections were administered with normal saline or MB, 500 μg/kg/day, diluted in normal saline to 500 μl of final volume. Rats were sacrificed on day 8 at four hours after last dose of MB or saline treatment.
After completion of neurological assessments and behavioral tests, rats were killed on the 8th day of rotenone infusion under anesthesia induced by xylazine (20 mg/kg, i.p.) and ketamine (100 mg/kg, i.p.). All osmotic pumps were checked for the residual liquid to ensure proper drug delivery. One hemisphere was fixed by 4% paraformaldehyde in phosphate buffer for 48 hr until processing for sectioning. The other hemisphere was snap-frozen in liquid nitrogen, and kept at −80° C. until extraction for biochemical analysis. Striatum dissected from a separate set of animals were used for analysis of monoamines by HPLC. […]

[6] = test system: rotenone induced rat model of PD; assay: Rotenone model of PD: body weight, neurological and behavioral assessment; format: in vivo; details: MB 500 μg/kg/day i.p.
Procedure: The accelerating rotarod, a motor driven treadmill (Omnitech Electronics, Columbus, Ohio) measures running coordination and motor performance. The rotor consisted of a nylon cylinder with a 7 cm diameter mounted horizontally 35.5 cm above a padded surface. On a given trial, the rats were placed on the cylinder, the cylinder was rotated, and a timer switch was simultaneously activated. Acceleration continued from 0 to a maximum of 44 rpm until animals were unable to stay on top of the rotating rod and fell to the padded surface. […] When the rat landed on the surface, a photosensitive switch was tripped and the timer stopped. Rats were subjected to this test two sessions a day, three trials per session, for 7 sessions. A 20-minute resting period was given between each trial. Animals were given at least two hours break time between sessions each day. Retention times on the rotating treadmill were recorded and plotted for analysis.
Neurological assessment was performed by three evaluators blind to treatment conditions. The evaluators were initially trained until they produced consistent scores when evaluating rats in these tests. Subsequently, experimental subjects were randomized and presented to the evaluators individually. For each session, which consisted of three trials, an individual evaluator scored a rat in only one trial; thus, the final score for a session for each animal was the average score of the three evaluators. The category included: tremor; locomotion; bradykinesia; hypokinesia; posture; and gross motor skills.
Catalepsy was measured by standard bar test and grid test adapted from previous publication. For bar test, the rats were placed with both front paws grasp on a horizontal bar which was 9 cm above the surface. The time, each animal took to remove one paw from the bar was manually measured by a stopwatch. For grid test, rats were placed on a vertical wire grid (25.5 cm width and 44 cm high with a space of 1 cm between each wire) and catalepsy was determined by the length of time the animals maintained all four paws on the grid using a stopwatch. The maximum descent latency was set at 300 seconds for the bar test and 60 seconds for grid test.
For gait analysis, the fore and hind paws of each rat were painted with blue and red dye, respectively. The animals were allowed to walk across an absorbent paper covered straight alley runway (150 cm long, 20 cm wide, opaque walls 20 cm tall) into a dark compartment. Before the test, animals were put in the dark compartment for 2 minutes to habituate to the environment and 3 pre-training runs were conducted for all rats. Three trials were conducted to obtain clear footprints for each animal. Prolonged stop or turning backward in the runway was considered failed trials. The distance of individual steps were analyzed by two independent blinded observers.

[7] = pH 7.0; cited from earlier work

CN(C)c1ccc2nc3ccc(=[N+](C)C)cc-3sc2c1 [methylene blue]
Ischemic lesion volume [1]: significantly reduced
Extracellular acidification rate (ECAR) (HT-22 cells [2]; 10 μg/ml MB, two hour incubation, vehicle 44±4): 9±3 mPH/min
Oxygen consumption rate (OCR) (HT-22 cells [2]; 10 μg/ml MB, two hour incubation, vehicle 264±10): 594 ± 19 pmol/min
Rotenone induced OCR inhibition (HT-22 cells [2]; rotenone 5 μM injection): dose-dependently attenuated
Cognitive functions [3]: improves cognitive functions
Maximal performance [3]: improves maximal performance
Increase of mitochondrial superoxide (MitoSox probe) (HT-22 cells [4]): almost completely blocked
Increase of total cellular ROS (DCFH2-DA) (HT-22 cells [4]): almost completely blocked
Decrease of complex I-III activity in brain extracts ([5]; MB 500 μg/kg/day i.p.): prevented
Overall ROS in brain extracts ([5]; MB 500 μg/kg/day i.p.): attenuated in the ROT/MB group to basal level
Striatum L-DOPAC depletion ([5]; MB 500 μg/kg/day i.p.): almost completely rescued
Striatum dopamine depletion ([5]; MB 500 μg/kg/day i.p.): almost completely rescued
Striatum 5-HT levels ([5]; all three groups): no significant differences
Catalepsy, bar test descent latency [6]: completely reversed
Catalepsy, grid test latency to fall [6]: attenuated
Neurological scores (randomized blinded assessment) [6]: significantly improved
Rotarod performance deficits [6]: almost completely prevented
Rotenone induced body weight loss [6]: attenuated
Stride length in gait analysis [6]: improved
Redox potential [7]: 11 mV
